Measured values from article PMC6409085, “Three odorant-binding proteins are involved in the behavioral response of Sogatella furcifera to rice plant volatiles” (PeerJ, 2019).
Several values for one entry are separate records, joined by “and”; a condition that tells them apart may be missing. Equal values may be shown once.

What was measured:
SfurOBP1 = SfurOBP1 (Sogatella furcifera, UniProt V5T8N5); test: biochemical; type: binding; conditions: for Fluorescence competitive binding assay, fluorescence intensity: OBP1, three replicate columns
SfurOBP1, sequence (V5T8N5 entry or part of it): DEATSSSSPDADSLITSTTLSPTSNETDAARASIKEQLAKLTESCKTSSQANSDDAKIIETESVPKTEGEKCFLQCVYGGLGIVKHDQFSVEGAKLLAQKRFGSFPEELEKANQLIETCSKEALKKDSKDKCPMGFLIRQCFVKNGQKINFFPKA
Outline: (§1)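 Protein 2.0 µM + 1-NPN 2.0 µM, 50 mM Tris-HCl pH 7.4; competitor odorants 2, 4 … 20 µM final; read 2 min post-addition, ex 337/em 390–490 nm; n=3. K1-NPN from 1-NPN titration/Scatchard; Ki from IC50 corrected for free 1-NPN.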

SfurOBP11 = SfurOBP11 (Sogatella furcifera, UniProt V5T6E3); test: biochemical; type: binding
SfurOBP11, sequence (V5T6E3 entry or part of it): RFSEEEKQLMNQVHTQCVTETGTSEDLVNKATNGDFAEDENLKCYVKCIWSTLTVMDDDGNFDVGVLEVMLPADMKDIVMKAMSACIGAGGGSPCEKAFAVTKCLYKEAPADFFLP
Outline: as §1

SfurOBP2 = SfurOBP2 (Sogatella furcifera, UniProt V5T759); test: biochemical; type: binding
SfurOBP2, sequence (V5T759 entry or part of it): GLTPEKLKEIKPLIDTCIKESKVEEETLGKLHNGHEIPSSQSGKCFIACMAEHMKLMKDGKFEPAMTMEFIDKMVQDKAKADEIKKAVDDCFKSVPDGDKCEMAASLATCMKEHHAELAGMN
Outline: as §1

SfurOBP3 = SfurOBP3 (Sogatella furcifera, UniProt V5T818); test: biochemical; type: binding; conditions: for Fluorescence competitive binding assay, fluorescence intensity: OBP3, three replicate columns
SfurOBP3, sequence (V5T818 entry or part of it): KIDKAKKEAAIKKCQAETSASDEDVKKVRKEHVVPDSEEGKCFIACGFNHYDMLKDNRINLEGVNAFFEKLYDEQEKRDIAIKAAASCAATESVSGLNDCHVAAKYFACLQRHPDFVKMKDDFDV
Outline: as §1

S. furcifera adults = test: Y-tube olfactometer behavioral trials; type: in vivo, Sogatella furcifera; conditions: odorant 50 µL/L vs hexane; adults
Outline: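 Single S. furcifera adults (2 days post-emergence, starved 0.5 h) chose between odorant (100 µL of 50 µL/L on filter paper) and hexane control in a glass Y-tube, charcoal-filtered humidified air 300 mL/min per arm, 25 ± 1 °C, 50% RH. Choice scored if insect passed half an arm and stayed >1 min within 10 min; 45 insects per compound, chi-squared test.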

Fluorescence competitive binding assay, fluorescence intensity (SfurOBP1; ligand concentration 2 (μM)): 7938 and 8209 and 9100
Fluorescence competitive binding assay, fluorescence intensity (SfurOBP1; ligand concentration 4 (μM)): 8199 and 9497 and 8248
Fluorescence competitive binding assay, fluorescence intensity (SfurOBP1; ligand concentration 6 (μM)): 9970 and 9490 and 9404
Fluorescence competitive binding assay, fluorescence intensity (SfurOBP1; ligand concentration 8 (μM)): 9879 and 9942 and 9021
Fluorescence competitive binding assay, fluorescence intensity (SfurOBP1; ligand concentration 10 (μM)): 11694 and 10870 and 12178
Fluorescence competitive binding assay, fluorescence intensity (SfurOBP1; ligand concentration 12 (μM)): 10792 and 13471 and 12081
Fluorescence competitive binding assay, fluorescence intensity (SfurOBP1; ligand concentration 14 (μM)): 13762 and 12603 and 7069
Fluorescence competitive binding assay, fluorescence intensity (SfurOBP1; ligand concentration 16 (μM)): 15566 and 12262 and 13672
Fluorescence competitive binding assay, fluorescence intensity (SfurOBP1; ligand concentration 18 (μM)): 13469 and 13374 and 13884
Fluorescence competitive binding assay, fluorescence intensity (SfurOBP1; ligand concentration 20 (μM)): 16296 and 16551 and 15519
IC50 (SfurOBP1; SfurOBP1, protein and 1-NPN both 2.0 µM, competitor 2-20 µM, read-out: IC50): > 20 µM
IC50 (SfurOBP11; SfurOBP11, protein and 1-NPN both 2.0 µM, competitor 2-20 µM, read-out: IC50): > 20 µM
Fluorescence intensity, fluorescence competitive binding assay, OBP11 (SfurOBP11; ligand concentration 2, replicate 1): 24967
Fluorescence intensity, fluorescence competitive binding assay, OBP11 (SfurOBP11; ligand concentration 2, replicate 2): 25926
Fluorescence intensity, fluorescence competitive binding assay, OBP11 (SfurOBP11; ligand concentration 2, replicate 3): 30699
Fluorescence intensity, fluorescence competitive binding assay, OBP11 (SfurOBP11; ligand concentration 4, replicate 1): 25125
Fluorescence intensity, fluorescence competitive binding assay, OBP11 (SfurOBP11; ligand concentration 4, replicate 2): 27382
Fluorescence intensity, fluorescence competitive binding assay, OBP11 (SfurOBP11; ligand concentration 4, replicate 3): 26896
Fluorescence intensity, fluorescence competitive binding assay, OBP11 (SfurOBP11; ligand concentration 6, replicate 1): 26493
Fluorescence intensity, fluorescence competitive binding assay, OBP11 (SfurOBP11; ligand concentration 6, replicate 2): 26335
Fluorescence intensity, fluorescence competitive binding assay, OBP11 (SfurOBP11; ligand concentration 6, replicate 3): 26650
Fluorescence intensity, fluorescence competitive binding assay, OBP11 (SfurOBP11; ligand concentration 8, replicate 1): 24847
Fluorescence intensity, fluorescence competitive binding assay, OBP11 (SfurOBP11; ligand concentration 8, replicate 2): 24250
Fluorescence intensity, fluorescence competitive binding assay, OBP11 (SfurOBP11; ligand concentration 8, replicate 3): 25420
Fluorescence intensity, fluorescence competitive binding assay, OBP11 (SfurOBP11; ligand concentration 10, replicate 1): 24577
Fluorescence intensity, fluorescence competitive binding assay, OBP11 (SfurOBP11; ligand concentration 10, replicate 2): 24121
Fluorescence intensity, fluorescence competitive binding assay, OBP11 (SfurOBP11; ligand concentration 10, replicate 3): 25032
Fluorescence intensity, fluorescence competitive binding assay, OBP11 (SfurOBP11; ligand concentration 12, replicate 1): 26676
Fluorescence intensity, fluorescence competitive binding assay, OBP11 (SfurOBP11; ligand concentration 12, replicate 2): 27183
Fluorescence intensity, fluorescence competitive binding assay, OBP11 (SfurOBP11; ligand concentration 12, replicate 3): 26168
Fluorescence intensity, fluorescence competitive binding assay, OBP11 (SfurOBP11; ligand concentration 14, replicate 1): 24529
Fluorescence intensity, fluorescence competitive binding assay, OBP11 (SfurOBP11; ligand concentration 14, replicate 2): 23823
Fluorescence intensity, fluorescence competitive binding assay, OBP11 (SfurOBP11; ligand concentration 14, replicate 3): 25235
Fluorescence intensity, fluorescence competitive binding assay, OBP11 (SfurOBP11; ligand concentration 16, replicate 1): 23763
Fluorescence intensity, fluorescence competitive binding assay, OBP11 (SfurOBP11; ligand concentration 16, replicate 2): 25792
Fluorescence intensity, fluorescence competitive binding assay, OBP11 (SfurOBP11; ligand concentration 16, replicate 3): 24713
Fluorescence intensity, fluorescence competitive binding assay, OBP11 (SfurOBP11; ligand concentration 18, replicate 1): 29957
Fluorescence intensity, fluorescence competitive binding assay, OBP11 (SfurOBP11; ligand concentration 18, replicate 2): 29942
Fluorescence intensity, fluorescence competitive binding assay, OBP11 (SfurOBP11; ligand concentration 18, replicate 3): 30678
Fluorescence intensity, fluorescence competitive binding assay, OBP11 (SfurOBP11; ligand concentration 20, replicate 1): 31322
Fluorescence intensity, fluorescence competitive binding assay, OBP11 (SfurOBP11; ligand concentration 20, replicate 2): 31721
Fluorescence intensity, fluorescence competitive binding assay, OBP11 (SfurOBP11; ligand concentration 20, replicate 3): 27795
IC50 (SfurOBP2; SfurOBP2, protein and 1-NPN both 2.0 µM, competitor 2-20 µM, read-out: IC50): > 20 µM
Fluorescence competitive binding assay, OBP2 (raw fluorescence reading) (SfurOBP2; ligand concentration 2 (unit not given), replicate column 1 of 3): 15375
Fluorescence competitive binding assay, OBP2 (raw fluorescence reading) (SfurOBP2; ligand concentration 2 (unit not given), replicate column 2 of 3): 16260
Fluorescence competitive binding assay, OBP2 (raw fluorescence reading) (SfurOBP2; ligand concentration 2 (unit not given), replicate column 3 of 3): 17114
Fluorescence competitive binding assay, OBP2 (raw fluorescence reading) (SfurOBP2; ligand concentration 4 (unit not given), replicate column 1 of 3): 15250
Fluorescence competitive binding assay, OBP2 (raw fluorescence reading) (SfurOBP2; ligand concentration 4 (unit not given), replicate column 2 of 3): 17637
Fluorescence competitive binding assay, OBP2 (raw fluorescence reading) (SfurOBP2; ligand concentration 4 (unit not given), replicate column 3 of 3): 17949
Fluorescence competitive binding assay, OBP2 (raw fluorescence reading) (SfurOBP2; ligand concentration 6 (unit not given), replicate column 1 of 3): 17180
Fluorescence competitive binding assay, OBP2 (raw fluorescence reading) (SfurOBP2; ligand concentration 6 (unit not given), replicate column 2 of 3): 18194
Fluorescence competitive binding assay, OBP2 (raw fluorescence reading) (SfurOBP2; ligand concentration 6 (unit not given), replicate column 3 of 3): 18919
Fluorescence competitive binding assay, OBP2 (raw fluorescence reading) (SfurOBP2; ligand concentration 8 (unit not given), replicate column 1 of 3): 15100
Fluorescence competitive binding assay, OBP2 (raw fluorescence reading) (SfurOBP2; ligand concentration 8 (unit not given), replicate column 2 of 3): 16066
Fluorescence competitive binding assay, OBP2 (raw fluorescence reading) (SfurOBP2; ligand concentration 8 (unit not given), replicate column 3 of 3): 16289
Fluorescence competitive binding assay, OBP2 (raw fluorescence reading) (SfurOBP2; ligand concentration 10 (unit not given), replicate column 1 of 3): 16213
Fluorescence competitive binding assay, OBP2 (raw fluorescence reading) (SfurOBP2; ligand concentration 10 (unit not given), replicate column 2 of 3): 16940
Fluorescence competitive binding assay, OBP2 (raw fluorescence reading) (SfurOBP2; ligand concentration 10 (unit not given), replicate column 3 of 3): 17695
Fluorescence competitive binding assay, OBP2 (raw fluorescence reading) (SfurOBP2; ligand concentration 12 (unit not given), replicate column 1 of 3): 14964
Fluorescence competitive binding assay, OBP2 (raw fluorescence reading) (SfurOBP2; ligand concentration 12 (unit not given), replicate column 2 of 3): 18259
Fluorescence competitive binding assay, OBP2 (raw fluorescence reading) (SfurOBP2; ligand concentration 12 (unit not given), replicate column 3 of 3): 16491
Fluorescence competitive binding assay, OBP2 (raw fluorescence reading) (SfurOBP2; ligand concentration 14 (unit not given), replicate column 1 of 3): 16687
Fluorescence competitive binding assay, OBP2 (raw fluorescence reading) (SfurOBP2; ligand concentration 14 (unit not given), replicate column 2 of 3): 18876
Fluorescence competitive binding assay, OBP2 (raw fluorescence reading) (SfurOBP2; ligand concentration 14 (unit not given), replicate column 3 of 3): 18074
Fluorescence competitive binding assay, OBP2 (raw fluorescence reading) (SfurOBP2; ligand concentration 16 (unit not given), replicate column 1 of 3): 17882
Fluorescence competitive binding assay, OBP2 (raw fluorescence reading) (SfurOBP2; ligand concentration 16 (unit not given), replicate column 2 of 3): 16512
Fluorescence competitive binding assay, OBP2 (raw fluorescence reading) (SfurOBP2; ligand concentration 16 (unit not given), replicate column 3 of 3): 18645
Fluorescence competitive binding assay, OBP2 (raw fluorescence reading) (SfurOBP2; ligand concentration 18 (unit not given), replicate column 1 of 3): 18334
Fluorescence competitive binding assay, OBP2 (raw fluorescence reading) (SfurOBP2; ligand concentration 18 (unit not given), replicate column 2 of 3): 17452
Fluorescence competitive binding assay, OBP2 (raw fluorescence reading) (SfurOBP2; ligand concentration 18 (unit not given), replicate column 3 of 3): 17782
Fluorescence competitive binding assay, OBP2 (raw fluorescence reading) (SfurOBP2; ligand concentration 20 (unit not given), replicate column 1 of 3): 16896
Fluorescence competitive binding assay, OBP2 (raw fluorescence reading) (SfurOBP2; ligand concentration 20 (unit not given), replicate column 2 of 3): 19235
Fluorescence competitive binding assay, OBP2 (raw fluorescence reading) (SfurOBP2; ligand concentration 20 (unit not given), replicate column 3 of 3): 19174
Fluorescence competitive binding assay, fluorescence intensity (SfurOBP3; ligand concentration 2): 42528 and 41583 and 43473
Fluorescence competitive binding assay, fluorescence intensity (SfurOBP3; ligand concentration 4): 41210 and 39055 and 38819
Fluorescence competitive binding assay, fluorescence intensity (SfurOBP3; ligand concentration 6): 40763 and 42069 and 38391
Fluorescence competitive binding assay, fluorescence intensity (SfurOBP3; ligand concentration 8): 40006 and 42611 and 39486
Fluorescence competitive binding assay, fluorescence intensity (SfurOBP3; ligand concentration 10): 37952 and 40731 and 37192
Fluorescence competitive binding assay, fluorescence intensity (SfurOBP3; ligand concentration 12): 41103 and 37710 and 38844
Fluorescence competitive binding assay, fluorescence intensity (SfurOBP3; ligand concentration 14): 39070 and 39869 and 40524
Fluorescence competitive binding assay, fluorescence intensity (SfurOBP3; ligand concentration 16): 39064 and 38170 and 38620
Fluorescence competitive binding assay, fluorescence intensity (SfurOBP3; ligand concentration 18): 39885 and 40160 and 39604
Fluorescence competitive binding assay, fluorescence intensity (SfurOBP3; ligand concentration 20): 39750 and 40400 and 40150
IC50 (SfurOBP3; SfurOBP3, protein and 1-NPN both 2.0 µM, competitor 2-20 µM, read-out: IC50): > 20 µM
Compound: CCCCCCCCCCCCC=O [tridecanal]
number of insects choosing hexane arm (S. furcifera adults): 11
number of insects choosing volatilies arm (S. furcifera adults): 13
number of insects failed (no choice) (S. furcifera adults): 16
